Results from ChEMBL document CHEMBL6177982, “Structural Optimization of Pyrazole Compounds as Hsp90 Regulators with Enhanced Antitumor Activity” (J Med Chem, 2025).
Activity calls are given as the source filed them. The rule behind the calls is not given here.

Experiments:
HCT-116 [1] = assay: Antiproliferative activity against CDC37 knockout human HCT-116 cells assessed as inhibition of cell proliferation incubated for 72 hrs by MTT assay; format: functional, cell-based; details: HCT-116, 72 h
HCT-116 [2] = assay: Antiproliferative activity against human HCT-116 cells assessed as inhibition of cell proliferation incubated for 72 hrs by MTT assay; format: functional, cell-based; details: HCT-116, 72 h
[3] = Selectivity ratio of IC50 for antiproliferative activity against CDC37 knockout human HCT-116 cells to IC50 for antiproliferative activity against human HCT-116 cells; format: functional
[4] = Stability of compound in simulated intestinal fluid at 100 uM incubated for 12 hrs; format: physicochemical; details: simulated gi fluid
[5] = Metabolic stability in human liver microsomes assessed as terminal elimination half-life at 1 uM preincubated for 5 mins followed by NADPH addition and measured up to 120 mins by LC-MS/MS analysis; format: ADME, Microsome; details: time < 125 min, read-out: LambdaZ (converted)
[6] = Metabolic stability in rat liver microsomes assessed as terminal elimination half-life at 1 uM preincubated for 5 mins followed by NADPH addition and measured up to 120 mins by LC-MS/MS analysis; format: ADME, Microsome; details: time < 125 min, read-out: LambdaZ (converted)
[7] = Metabolic stability in rat liver microsomes assessed as clearance at 1 uM preincubated for 5 mins followed by NADPH addition and measured up to 120 mins by LC-MS/MS analysis; format: ADME, Microsome; details: time < 125 min, read-out: CLH
[8] = Metabolic stability in human liver microsomes assessed as clearance at 1 uM preincubated for 5 mins followed by NADPH addition and measured up to 120 mins by LC-MS/MS analysis; format: ADME, Microsome; details: time < 125 min, read-out: CLH
[9] = Metabolic stability in rat liver microsomes assessed as parent compound remaining at 1 uM preincubated for 5 mins followed by NADPH addition and measured after 30 mins by LC-MS/MS analysis; format: ADME, Microsome; details: time 35 min, read-out: Stability
[10] = Metabolic stability in human liver microsomes assessed as parent compound remaining at 1 uM preincubated for 5 mins followed by NADPH addition and measured after 30 mins by LC-MS/MS analysis; format: ADME, Microsome; details: time 35 min, read-out: Stability
[11] = Tmax in male Sprague-Dawley rat at 1 mg/kg, iv by LC-MS/MS analysis; format: ADME, organism-based; details: in vivo
[12] = AUC (0 to infinity) in male Sprague-Dawley rat at 1 mg/kg, iv by LC-MS/MS analysis; format: ADME, organism-based; details: in vivo
[13] = Volume of distribution at steady state in male Sprague-Dawley rat at 1 mg/kg, iv by LC-MS/MS analysis; format: ADME, organism-based; details: in vivo, read-out: Vdss
[14] = Tmax in male Sprague-Dawley rat at 5 mg/kg, ip by LC-MS/MS analysis; format: ADME, organism-based; details: in vivo
[15] = AUC (0 to infinity) in male Sprague-Dawley rat at 5 mg/kg, ip by LC-MS/MS analysis; format: ADME, organism-based; details: in vivo
[16] = Tmax in male Sprague-Dawley rat at 10 mg/kg, IG by LC-MS/MS analysis; format: ADME, organism-based; details: in vivo, po
[17] = Cmax in male Sprague-Dawley rat at 10 mg/kg, IG by LC-MS/MS analysis; format: ADME, organism-based; details: in vivo, po
[18] = Bioavailability in male Sprague-Dawley rat at 10 mg/kg, IG by LC-MS/MS analysis; format: ADME, organism-based; details: in vivo, po
Homo sapiens = organism: Homo sapiens; assay: Covalent binding affinity to His-tagged C-terminal HSP90 C598A mutant (unknown origin) assessed as two phase melting curve at 100 uM incubated for 4 hrs by SYPRO fluorescent dye based thermal shift assay
HCT-116 [19] = assay: Induction of AKT degradation in human HCT-116 cells incubated for 24 hrs by Western blot analysis; format: cell-based; details: dose 0.1-5 µM
HCT-116 [20] = assay: Upregulation of HSP90 level in human HCT-116 cells at 0.1 to 5 uM incubated for 24 hrs by Western blot analysis; format: functional, cell-based; details: dose 0.1-5 µM
HCT-116 [21] = assay: Inhibition of Myc-tagged HSP90 C598A mutant (unknown origin)/CDC37 (unknown origin) protein-protein interaction transfected in human HCT-116 cells at 0.5 to 5 uM incubated for 12 hrs by co-immunoprecipitation analysis; format: cell-based; details: dose 0.5-5 µM
HCT-116 [22] = assay: Inhibition of Myc-tagged HSP90 C598A mutant (unknown origin)/AKT(unknown origin) protein-protein interaction transfected in human HCT-116 cells at 1 to 5 uM incubated for 12 hrs by co-immunoprecipitation analysis; format: cell-based; details: dose 1-5 µM
HCT-116 [23] = assay: Inhibition of Myc-tagged HSP90 C598A mutant (unknown origin)/CDK4 (unknown origin) protein-protein interaction transfected in human HCT-116 cells at 1 to 5 uM incubated for 12 hrs by co-immunoprecipitation analysis; format: cell-based; details: dose 1-5 µM
[24] = molecular target: Heat shock protein HSP 90-beta/Hsp90 co-chaperone Cdc37 (Homo sapiens) (UniProt P08238+Q16543); assay: Inhibition of Myc-tagged HSP90 (unknown origin)/CDC37 (unknown origin) protein-protein interaction transfected in human HCT-116 cells incubated for 12 hrs by co-immunoprecipitation analysis; format: cell-based; details: dose 0.5-5 µM
HT-29 = assay: Antiproliferative activity against human HT-29 cells assessed as inhibition of cell proliferation incubated for 72 hrs by MTT assay; format: functional, cell-based; details: HT-29, 72 h
SK-BR-3 = assay: Antiproliferative activity against human SK-BR-3 cells assessed as inhibition of cell proliferation incubated for 72 hrs by MTT assay; format: functional, cell-based; details: SK-BR-3, 72 h
MCF7 = assay: Antiproliferative activity against human MCF7 cells assessed as inhibition of cell proliferation incubated for 72 hrs by MTT assay; format: functional, cell-based; details: MCF7, 72 h
HCT-116 [25] = assay: Antiproliferative activity against human HCT-116 cells assessed as inhibition of cell proliferation incubated for 24 hrs by MTT assay; format: functional, cell-based; details: HCT-116, 24 h
HCT-116 [26] = assay: Antiproliferative activity against human HCT-116 cells assessed as inhibition of cell proliferation incubated for 48 hrs by MTT assay; format: functional, cell-based; details: HCT-116, 48 h
Mus musculus = assay: In vivo induction of CDK4 degradation in female Balb/c nude mouse xenografted with human HCT-116 cells assessed as decrease in CDK4 protein level in tumor at 5 to 30 mg/kg, ip administered every two days for 14 days by Western blot analysis; format: functional, organism-based; details: dose 5-30 mg/kg, time 14.0 day
[27] = Toxicity in female Balb/c nude mouse xenografted with human HCT-116 cells assessed as effect on heart weight at 5 to 30 mg/kg, ip administered every two days for 14 days; format: organism-based; details: in vivo, 336 h, dose 5-30 mg/kg, time 14 day
[28] = Toxicity in female Balb/c nude mouse xenografted with human HCT-116 cells assessed as effect on kidney weight at 5 to 30 mg/kg, ip administered every two days for 14 days; format: organism-based; details: in vivo, 336 h, dose 5-30 mg/kg, time 14 day
[29] = Toxicity in female Balb/c nude mouse xenografted with human HCT-116 cells assessed as pathological changes in heart at 5 to 30 mg/kg, ip administered every two days for 14 days by H and E staining based analysis; format: organism-based; details: in vivo, 336 h, dose 5-30 mg/kg, time 14 day
[30] = Toxicity in female Balb/c nude mouse xenografted with human HCT-116 cells assessed as pathological changes in spleen at 5 to 30 mg/kg, ip administered every two days for 14 days by H and E staining based analysis; format: organism-based; details: in vivo, 336 h, dose 5-30 mg/kg, time 14 day
[31] = Toxicity in female Balb/c nude mouse xenografted with human HCT-116 cells assessed as pathological changes in kidney at 5 to 30 mg/kg, ip administered every two days for 14 days by H and E staining based analysis; format: organism-based; details: in vivo, 336 h, dose 5-30 mg/kg, time 14 day

IC50 (HCT-116 [1]): > 50 µM
IC50 (HCT-116 [2]): 1.08 µM
Stability [4]: Stable
half-life at 1 µM [5]: 53.4 min
half-life at 1 µM [6]: 25.2 min
microsomal CLint at 1 µM [7]: 55 µL/min/mg
microsomal CLint at 1 µM [8]: 26 µL/min/mg
remaining at 0.5 h, 1 µM [9]: 58%
remaining at 0.5 h, 1 µM [10]: 64%
Tmax [11]: 1.02 min
AUC(0-inf) [12]: 1460 ng·h/mL
Vd [13]: 0.52 L/kg
Tmax [14]: 8.4 min
AUC(0-inf) [15]: 6770 ng·h/mL
Tmax [16]: 52.8 min
Cmax [17]: 2400 ng/mL
bioavailability [18]: 67.2%
Activity (Homo sapiens): inactive
inhibition [24]: Dose-dependent-effect
IC50 (HT-29): 2.02 µM
IC50 (SK-BR-3): 1.99 µM
IC50 (MCF7): 2.34 µM
IC50 (HCT-116 [25]): 6.36 µM
IC50 (HCT-116 [26]): 4.18 µM
SMILES: O=S(=O)(/C=C/c1cn(-c2ccccc2)nc1-c1cccnc1)c1ccccc1
Ratio IC50 [3]: >50
Activity (HCT-116 [19]): Dose-dependent-effect
Activity (HCT-116 [20]): inactive
inhibition (HCT-116 [21]): inactive
inhibition (HCT-116 [22]): inactive
inhibition (HCT-116 [23]): inactive
Activity (Mus musculus): Active
Activity [27]: Non-toxic
Activity [28]: Non-toxic
Activity [29]: Non-toxic
Activity [30]: Non-toxic
Activity [31]: Non-toxic
